According to the supplement of paper PMC10307832:

compound: N[C@@H]1CCCN(c2c(/C=C3\SC(=O)NC3=O)cccc2-c2ccccc2)C1 [AZD1208] + Nc1nc2[nH]cc(CCc3ccc(C(=O)N[C@@H](CCC(=O)O)C(=O)O)cc3)c2c(=O)[nH]1 [Pemetrexed] (partner 0.2 µM); assay: relative viability (nuclei count vs DMSO), 5 days (fraction); higher = more cells survive; settings: first compound 0.08 µM
Outline: (§1)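 Lung cancer cell lines were seeded in 1536-well plates and dosed by pin tool the next day, with either a single drug or a fixed anchor-drug dose combined with five library-drug doses (not always all listed) spaced in √10 steps. Five days later, one step fixed the cells and stained their nuclei (final 0.05% Triton X-100, 1% formaldehyde, 1 ug/ml Hoechst), and nuclei were counted on 4× images. Relative viability is the nuclei count in treated wells divided by the count in vehicle wells, and each value is the median of duplicate plates.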

Cell Line	relative viability
EKVX	0.411
LC-2-ad	0.246
NCI-H1944	0.593
NCI-H1975	0.288
SK-LU-1	0.956
RERF-LC-KJ	0.515

same assay, conditions: first compound 0.253 µM

Cell Line	relative viability
EKVX	0.441
LC-2-ad	0.278
NCI-H1944	0.652
NCI-H1975	0.295
SK-LU-1	1.02
RERF-LC-KJ	0.441

same assay, conditions: first compound 0.8 µM

Cell Line	relative viability
EKVX	0.404
LC-2-ad	0.269
NCI-H1944	0.591
NCI-H1975	0.282
SK-LU-1	0.988
RERF-LC-KJ	0.505

same assay, conditions: first compound 2.53 µM

Cell Line	relative viability
EKVX	0.425
LC-2-ad	0.246
NCI-H1944	0.579
NCI-H1975	0.286
SK-LU-1	0.944
RERF-LC-KJ	0.476

same assay, conditions: first compound 8 µM

Cell Line	relative viability
EKVX	0.404
LC-2-ad	0.272
NCI-H1944	0.535
NCI-H1975	0.327
SK-LU-1	0.869
RERF-LC-KJ	0.491

compound: N[C@@H]1CCCN(c2c(/C=C3\SC(=O)NC3=O)cccc2-c2ccccc2)C1 [AZD1208] + COc1cc2c(Oc3ccc(NC(=O)C4(C(=O)Nc5ccc(F)cc5)CC4)cc3F)ccnc2cc1OCCCN1CCOCC1 [Foretinib] (partner 0.25 µM); assay: as above; settings: first compound 0.08 µM
Outline: as §1

Cell Line	relative viability
EKVX	0.798
LC-2-ad	0.903
NCI-H1944	0.829
NCI-H1975	1.06
SK-LU-1	0.794
RERF-LC-KJ	0.865

same assay, conditions: first compound 0.253 µM

Cell Line	relative viability
EKVX	0.744
LC-2-ad	0.924
NCI-H1944	0.838
NCI-H1975	0.959
SK-LU-1	0.917
RERF-LC-KJ	0.859

same assay, conditions: first compound 0.8 µM

Cell Line	relative viability
EKVX	0.876
LC-2-ad	0.871
NCI-H1944	0.774
NCI-H1975	0.855
SK-LU-1	0.8
RERF-LC-KJ	0.682

same assay, conditions: first compound 2.53 µM

Cell Line	relative viability
EKVX	0.858
LC-2-ad	0.85
NCI-H1944	0.688
NCI-H1975	0.853
SK-LU-1	0.721
RERF-LC-KJ	0.7

same assay, conditions: first compound 8 µM

Cell Line	relative viability
EKVX	0.913
LC-2-ad	0.912
NCI-H1944	0.571
NCI-H1975	0.972
SK-LU-1	0.661
RERF-LC-KJ	0.546

compound: CN1CCN(CC1)C2=CC(=C(C=C2)NC3=NC(=C(S3)C(=O)C4=C(C=CC=C4Cl)Cl)N)OC [XMD14-99] + CC1(C)CCC(c2ccc(Cl)cc2)=C(CN2CCN(c3ccc(C(=O)NS(=O)(=O)c4ccc(N[C@H](CCN5CCOCC5)CSc5ccccc5)c(S(=O)(=O)C(F)(F)F)c4)cc3)CC2)C1 [Navitoclax] (partner 0.5 µM); assay: as above; settings: first compound 0.08 µM
Outline: as §1

Cell Line	relative viability
EKVX	0.96
LC-2-ad	0.533
NCI-H1944	1.1
NCI-H1975	1.05
SK-LU-1	0.796
RERF-LC-KJ	1.01

same assay, conditions: first compound 0.8 µM

Cell Line	relative viability
EKVX	0.982
LC-2-ad	0.386
NCI-H1944	1.04
NCI-H1975	1.07
SK-LU-1	1.02
RERF-LC-KJ	0.829

same assay, conditions: first compound 2.53 µM

Cell Line	relative viability
EKVX	0.841
LC-2-ad	0.273
NCI-H1944	1.01
NCI-H1975	1.14
SK-LU-1	0.886
RERF-LC-KJ	0.926

same assay, conditions: first compound 8 µM

Cell Line	relative viability
EKVX	0.66
LC-2-ad	0.295
NCI-H1944	0.919
NCI-H1975	1.08
SK-LU-1	0.405
RERF-LC-KJ	0.607

compound: N[C@@H]1CCCN(c2c(/C=C3\SC(=O)NC3=O)cccc2-c2ccccc2)C1 [AZD1208] + CC1(C)CCC(c2ccc(Cl)cc2)=C(CN2CCN(c3ccc(C(=O)NS(=O)(=O)c4ccc(N[C@H](CCN5CCOCC5)CSc5ccccc5)c(S(=O)(=O)C(F)(F)F)c4)cc3)CC2)C1 [Navitoclax] (partner 0.5 µM); assay: as above; settings: first compound 0.08 µM
Outline: as §1

Cell Line	relative viability
EKVX	0.931
LC-2-ad	0.36
NCI-H1944	1.05
NCI-H1975	1.19
SK-LU-1	0.56
RERF-LC-KJ	1.03

same assay, conditions: first compound 0.253 µM

Cell Line	relative viability
EKVX	0.995
LC-2-ad	0.356
NCI-H1944	1.01
NCI-H1975	1.05
SK-LU-1	0.874
RERF-LC-KJ	0.908

same assay, conditions: first compound 0.8 µM

Cell Line	relative viability
EKVX	0.754
LC-2-ad	0.331
NCI-H1944	0.977
NCI-H1975	1.14
SK-LU-1	0.883
RERF-LC-KJ	0.959

same assay, conditions: first compound 2.53 µM

Cell Line	relative viability
EKVX	0.933
LC-2-ad	0.397
NCI-H1944	1.01
NCI-H1975	1.01
SK-LU-1	0.774
RERF-LC-KJ	0.921

same assay, conditions: first compound 8 µM

Cell Line	relative viability
EKVX	0.944
LC-2-ad	0.489
NCI-H1944	0.832
NCI-H1975	1.09
SK-LU-1	0.813
RERF-LC-KJ	0.662
